Experimental findings from US12285524B2, “Sustained-release pharmaceutical compositions comprising an antipsychotic drug and uses thereof” (priority 2018, dated 2025) are described below.

Molecules are shown by their SMILES.

The series is described as follows: in vivo. To be noted: female, Sprague-Dawley, rat, sc, 10 mg/kg. As for the experimental part: The rats were housed in a holding room which operated on a 12-hr light/12-hr dark circadian cycle with free access to water and food.
Plasma samples were obtained by centrifugation, kept frozen at −80° C. and analyzed using a noncompartmental analysis model in PKSolver (Comput Methods Programs Biomed. 2010; 99(3):306-314).

In the case of `Cc1nc2n(c(=O)c1CCN1CCC(c3noc4cc(F)ccc34)CC1)CCCC2` [Risperidone, risperidone], the total exposure AUC(0-inf) (in general, the area under the concentration-time curve extrapolated to infinity) was found to be 13300 ng·h/mL; the exposure AUC(0-t) (as a rule, exposure summed from dosing to a finite time, without extrapolation to infinity) worked out at 13200 ng·h/mL; the concentration peaked (Cmax) at 4510 ng/mL. In addition, the “drug released, indicated by AUC0-t” value (8 h) turned out to be 100%.
